Consider one substance from US20250352524A1, “PREVENTION OF METASTATIC OUTGROWTH USING TEAD INHIBITORS” (Georgetown University, priority 2024, published 2025).

One test concerns THP1 macrophages. The experiment in a line: qPCR gene expression in THP1 macrophages. It counts as cell-based, human. As to conditions: 1 μM VT107 vs vehicle. The text has this:
To determine if knockdown of TEAD mimicked iTEAD effects, THP1 cells were transduced with shRNAs targeting TEAD 1, 3 and 4 or GFP as a control. Knockdown was confirmed by western blot with a pan TEAD antibody (FIG. 13, Panel A). […] TEAD knockdown in THP1 macrophages decreased protumor inflammatory cytokines CXCL2, 5, and 6 (FIG. 12, Panel C). […] Signaling pathways related to inflammatory diseases, such as rheumatoid arthritis, were decreased (FIG. 12, Panel D), as well as the inflammatory upstream regulators LPS and TNF (FIG. 12, Panel E). The score for M2-like upstream regulators, OSM (Shrivastava et al., 2019) and IL17A (Miller et al., 2020) was decreased by TEAD knockdown yet importantly, IL12 and the immune modulator used to enhance immunotherapy, NC410, scores were increased (Ramos et al., 2021) (FIG. 12, Panel D). Taken together, the response to iTEAD treatment or TEAD knockdown enhanced macrophages interaction with tumor cells and IL12 signaling. The global anti-inflammatory effect and the repression of the M2-like macrophage phenotypes are known to oppose the establishment of a hospitable metastatic niche (McGinnis et al., 2024; Sica et al., 2008; Noy & Pollard, 2014).
Total RNA was extracted from cell lines using a RNeasy Mini Kit (Qiagen, #74104) according to the manufacturer's instructions. cDNA from total RNA was made with the iScript cDNA synthesis kit according to the manufacturer's protocol (Biorad, #170-8891) and qPCR was performed in an iCycler iQ (BioRad) using the iQ SYBR Green Supermix (BioRad, #170-8882).
Background: Real-time PCR tracks product formation cycle by cycle.

For the next test, the system named is T-cells. Kind of test: Degranulation assay of T-cells co-cultured with 4T1 cells. Format: cell-based, BALB/c mice. Here is the method:
The hippo pathway has been implicated in T-cell development and function (Du et al., 2014; Ueda et al., 2012). For example, YAP expression is essential for tumor immune suppression by Treg cells that attenuates CD8 T-cell immunity (Geng et al., 2017; Ni et al., 2018; Lebid et al., 2020). […] To investigate whether VT107 directly affected T-cells, T-cells treated with VT107 were co-cultured with 4T1 cells in 2D for 72 hours. […] To further confirm T-cell activation upon TEAD activity reduction, we used Jurkat cells, a CD4 positive human lymphoma cell line (Schneider et al., 1977). […] However, here we show the specific effect of TEAD reduction on granzyme gene expression and degranulation that result in the killing of cancer cells.
T-cells were isolated from the spleens of naïve BALB/c as described above and treated in vitro with DMSO control or VT107 for 24 hours. T-cells were then co-cultured with 4T1 cells with the same treatment conditions. After 72 hours, all cells were collected and subdued to flow cytometry using anti-CD45-AF700 (Biolegend, 103128), anti-CD8-BV785 (Biolegend, 100750), anti-CD4-Pacific Blue (Biolegend, 116007), anti-CD107a-PE/Cy7 (Biolegend, 121620), and Helix NP Blue (Biolegend, 425305). Analysis was performed on the BD FACSymphony Δ3 flow cytometer analyzer, and results were analyzed using FCS Express 7 Research (De Novo Software).

Test [1] has as its system lung resident macrophages. Kind of test: Cytokine array of conditioned media, isolated lung macrophages. It counts as cell-based, C57BL/6 mice. The text has this:
Due to the shifts in immune signaling observed in the lung tissue upon TEAD inhibition (FIG. 9), immune cell populations were first analyzed by flow cytometry in the lungs and spleens of tumor naïve mice. Consistent with the Cibersort analysis of RNA-seq data, there was a decrease in the monocytes population and an increase in the tissue-resident alveolar macrophages (AM) (FIG. 10, Panel A). […] Next, it was sought to determine the specific effects of iTEAD treatment on lung resident versus bone-marrow derived macrophages, as the dynamics of these cell populations are crucial for the establishment of the metastatic niche (Ries et al., 2014; Qian et al., 2011). Macrophages were retrieved from the lungs by isolating F4/80+ cells, a specific marker for murine macrophages, by FACS (fluorescence-activated cell sorting) as well as bone marrow-derived macrophages from the femurs of naïve C57BL/6 mice that were then differentiated in vitro using macrophage colony stimulating factor (M-CSF). Macrophages were treated with 1 μM of VT107 for 24 hours before the conditioned media was collected and analyzed on a cytokine array. […] There was no change in the level of the other cytokines detected (FIG. 10, Panel B).
Cells were grown in their recommended cell culture media and treated with […] VT107 for 24 or 72 hours. Conditioned media was collected and passed through a 0.2 micron PES filter then analyzed on a RayBio® Mouse Cytokine Array (#AAM-TCR-1) according to the manufacture's protocol. The array includes two spots for each cytokine. The luminescence signal was normalized to the positive control on each membrane, then to the vehicle treatment signal of each cytokine.

Regarding VT107, in the test with THP1 macrophages, the “CD80 gene expression level” value was “increase”; the “IL12 gene expression level” value is “increase”; the “expression of YAP/TEAD target genes CTGF, S100Δ8 and S100Δ9” value was “downregulated”. Moreover, in the test with THP1 macrophages (listed as iTEAD), the “expression of YAP/TEAD target genes CTGF, S100Δ8 and S100Δ9” value was “decreased expression”. In addition, in the test on T-cells (1 μM VT107, co-culture with 4T1 cells 72 hours, flow cytometry), the “T-cell degranulation marker CD107a” value is “significantly increased”. For the same substance, the IFNγ levels result with T-cells (T-cells treated with VT107, co-cultured with 4T1 cells in 2D for 72 hours) was “no change”. Besides, the “level of the other cytokines detected” value in test [1] (1 μM VT107 24 hours, lung and bone marrow-derived macrophages) is listed as “no change”. In test [1] (1 μM VT107 for 24 hours), the “secreted IL4” value was “significantly higher level” and the “secreted IL12” value is given as “significantly higher level”.
